Here are results for two compounds from US20050192360A1, “Method of treatment of pancreatic cancer” (priority 1999, published 2005).

Each structure is given as a SMILES string. Counter-ions that a name gives are not always drawn. Like-named read-outs stand apart in the source and are kept apart here.

The subject of data set [1] is xenografted Panc-1 human pancreatic tumors. Nature of the data set: Human pancreatic cancer xenograft mouse model, monotherapy or combination with gemcitabine (Example 7). The class given is in vivo, male athymic nude (Ncr) mice. The settings on record: for Tumor re-growth after termination of treatment: 19 days post-treatment observation. As for the experimental part:
Human pancreatic cancer Panc-1 cells (2×10^6) are implanted subcutaneously into male athymic nude (Ncr) mice. […] The combination therapy group receives β-lapachone and gemcitabine on the same day in each treatment. Following treatment, the animals are observed for an additional 19 days. Tumors are measured throughout the treatment and post-treatment periods.
In general terms: Xenograft models place foreign cells or tissue in a host animal.

The next data set concerns normal cells. Nature of the data set: In vitro experiments using cell lines of various tissue origins. The class given is cell-based.
Data set [2] concerns E2F-1 protein in Paca-2 cells. Nature of the data set: Western blot of E2F-1 protein expression. It counts as cell-based, human. As for the experimental part:
Cells are harvested and whole cell lysates were prepared and resolved by SDS/PAGE, then Western blots are prepared using E2F-1 antibody obtained from Santa Cruz Biotechnology (Santa Cruz, Calif.) and an enhanced chemiluminescence assay system (Amersham Pharmacia).
In general terms: Immunoblotting shows a protein as a band on a membrane.

In data set [3] the test system is xenografted Panc-1 human pancreatic tumors. The class given is in vivo, athymic female nude mice (Ncr). The settings on record: 5 treatments. How it is done:
Athymic female nude mice (Ncr) are inoculated subcutaneously with 4×10^6 human Panc-1 pancreatic cancer cells, and the tumors are allowed to grow to […] in size. The animals are randomized into three groups. […] Mean tumor volume is then analyzed.

As for `Nc1ccn([C@@H]2O[C@H](CO)[C@@H](O)C2(F)F)c(=O)n1` [gemcitabine, 2′-deoxy-2′,2′-difluorocytidine monohydrochloride (β-isomer), reference compound], in data set [1] (gemcitabine 120 mg/kg i.p., ten treatments every three days), the “Reduction of tumor size at termination of treatment” value is recorded as 30-40%. Also, in data set [1] (gemcitabine 120 mg/kg i.p.), the “Tumor re-growth after termination of treatment” value was 400%.
Turning to `CC1(C)CCC2=C(O1)c1ccccc1C(=O)C2=O` [β-lapachone, 3,4-dihydro-2,2-dimethyl-2H-naphtho[1,2-b]pyran-5,6-dione], the “Toxicity to normal cells in vitro” value in the data set with normal cells is reported as “relatively non-toxic”. Also, the “Tumor regression at termination of treatment” value in data set [1] (β-lapachone alone 40 mg/kg i.p., ten treatments every three days) is 30-40%. For the same compound, the “Tumor re-growth after termination of treatment” value in data set [1] (β-lapachone alone 40 mg/kg i.p.) is on record as “no significant re-growth”. Further, in data set [2] (0.5 hours exposure), the “Concentration at which E2F-1 protein is induced (lowest concentration tested)” value was 0.5 µM. The “E2F-1 protein expression (Western blot)” value in data set [2] (0.5 hours exposure, 0.5, 2 or 4 μM) is given as “upregulated”. For the same compound, the Mean tumor volume result in data set [3] (40 mg/kg intraperitoneally every three days) and in data set [3] (60 mg/kg intraperitoneally every three days) was “reduced” throughout.
